These results are taken from PMC8272242 (Molecules, 2021).

The nature of the series: thermal stability during DSC measurements (FTIR-ATR and weight before and after). Particulars: across the range of temperatures used in the DSC study (solid and melt). Format: physicochemical. As for the experimental part:
No polymorphs or solvates have so far been reported. However, in order to confirm that no crystal phase or pseudo-polymorphic transitions occurred during solubility measurements, the sediments collected after flask-shake experiments were analyzed using DSC and FTIR-ATR techniques. The results of these measurements are summarized in supplementary materials in Figures S1 and S2. The solvate formation can be identified by the absorption band shifts on the IR spectra. With DSC thermograms, the formation of a new crystal form would be associated with polymorphic transformations or solvate degradation found prior to the melting peak. Both IR spectra and DSC thermograms recorded for sediments were similar to pure phenacetin. […] As documented in Figure 1, both spectra are nearly identical as indicated by the differential plot.
It is notable that the temperature trends are linear, and it is reasonable to expect that a change of heat capacity values associated with melting ∆Cp would adopt a linear temperature relationship.
The calibration was performed using zinc and indium standards.
On the technique in general: Differential scanning calorimetry records heat flow against a reference as temperature is scanned.

`CCOc1ccc(NC(C)=O)cc1` [phenacetin, N-(4-ethoxyphenyl)acetamide]: the thermal stability entry is given as “stable”.
